Reference: PubChem BioAssay (NCI)
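Results reflect a 48-hour exposure of cells in 96-well plates to compound at five concentrations. The concentration for 50% growth inhibition is given as GI50. TGI: concentration producing complete growth inhibition.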

Assays:
Experiment in all cases: inhibition of tumour cell growth, NCI panel, 48 h
[1] = test system: 786-0 renal
[2] = test system: A498 renal
[3] = test system: A549 NSCLC
[4] = test system: ACHN renal
[5] = test system: BT-549 breast
[6] = test system: CAKI-1 renal
[7] = test system: CCRF-CEM leukemia
[8] = test system: COLO 205 colon
[9] = test system: DU-145 prostate
[10] = test system: HCC-2998 colon
[11] = test system: HCT-116 colon
[12] = test system: HCT-15 colon
[13] = test system: HL-60(TB) leukemia
[14] = test system: HOP-62 NSCLC
[15] = test system: HOP-92 NSCLC
[16] = test system: HS 578T breast
[17] = test system: HT29 colon
[18] = test system: IGROV1 ovarian
[19] = test system: K-562 leukemia
[20] = test system: KM12 colon
[21] = test system: LOX IMVI melanoma
[22] = test system: M14 melanoma
[23] = test system: MALME-3M melanoma
[24] = test system: MCF7 breast
[25] = test system: MDA-MB-231 breast
[26] = test system: MDA-MB-435
[27] = test system: MOLT-4 leukemia
[28] = test system: NCI-H226 lung
[29] = test system: NCI-H23 lung
[30] = test system: NCI-H460 lung
[31] = test system: NCI-H522 lung
[32] = test system: NCI/ADR-RES ovarian
[33] = test system: OVCAR-3 ovarian
[34] = test system: OVCAR-5 ovarian
[35] = test system: OVCAR-8 ovarian
[36] = test system: PC-3 prostate
[37] = test system: RXF 393 renal
[38] = test system: SF-268 CNS
[39] = test system: SF-295 CNS
[40] = test system: SF-539 CNS
[41] = test system: SK-MEL-2 melanoma
[42] = test system: SK-MEL-28 melanoma
[43] = test system: SK-MEL-5 melanoma
[44] = test system: SK-OV-3 ovarian
[45] = test system: SN12C renal
[46] = test system: SNB-19 CNS
[47] = test system: SNB-75 CNS
[48] = test system: SR leukemia
[49] = test system: SW-620 colon
[50] = test system: T-47D breast
[51] = test system: TK-10 renal
[52] = test system: U251 CNS
[53] = test system: UACC-257 melanoma
[54] = test system: UACC-62 melanoma
[55] = test system: UO-31 renal

`Cn1c(C(N)=O)cc2c1-c1nc(Nc3ccccc3)ncc1CCC2` was tested, and the GI50 [1] was 4.55 µM, the TGI [1] was 34.5 µM and the GI50 [2] was 0.204 µM. It also gave a TGI [2] of 0.955 µM, a GI50 [3] of 3.67 µM and a TGI [3] of 22 µM. It also gave a GI50 [4] of 3.61 µM, a TGI [4] of 50.5 µM and a GI50 [5] of 3.29 µM. For the same compound, the TGI [5] was 27.8 µM, the GI50 [6] was 2.11 µM and the TGI [6] was 15.9 µM. It also gave a GI50 [7] of 6.21 µM, a TGI [7] greater than 100 µM and a GI50 [8] of 4.77 µM. For the same compound, the TGI [8] was 17.7 µM, the GI50 [9] was 6.18 µM and the TGI [9] was 62.7 µM. The GI50 [10] was 10.3 µM, the TGI [10] was 33.3 µM and the GI50 [11] was 3.52 µM. The TGI [11] was 41.7 µM, the GI50 [12] was 3.4 µM and the TGI [12] was 28.6 µM. For the same compound, the GI50 [13] was 6.77 µM, the TGI [13] was 49.7 µM and the GI50 [14] was 2.96 µM. The TGI [14] was 52.6 µM, the GI50 [15] was 1.47 µM and the TGI [15] was 8.32 µM. The GI50 [16] was 1.97 µM, the TGI [16] was 6.9 µM and the GI50 [17] was 10.6 µM. The TGI [17] was 34.7 µM, the GI50 [18] was 3.87 µM and the TGI [18] was 24.2 µM. For the same compound, the GI50 [19] was 4.65 µM, the TGI [19] was greater than 100 µM and the GI50 [20] was 1.48 µM. For the same compound, the TGI [20] was 18.3 µM, the GI50 [21] was 4.86 µM and the TGI [21] was 24.8 µM. For the same compound, the GI50 [22] was 4.73 µM, the TGI [22] was 41.1 µM and the GI50 [23] was 7.63 µM. For the same compound, the TGI [23] was 57 µM, the GI50 [24] was 4.41 µM and the TGI [24] was greater than 100 µM. The GI50 [25] was 5.59 µM, the TGI [25] was greater than 100 µM and the GI50 [26] was 3.88 µM. The TGI [26] was greater than 100 µM, the GI50 [27] was 4.21 µM and the TGI [27] was 50.4 µM. The GI50 [28] was 0.902 µM, the TGI [28] was 33.7 µM and the GI50 [29] was 4.91 µM. It also gave a TGI [29] of 32.9 µM, a GI50 [30] of 4.2 µM and a TGI [30] greater than 100 µM. It also gave a GI50 [31] of 4.13 µM, a TGI [31] of 22.7 µM and a GI50 [32] of 6.3 µM. The TGI [32] was 49.8 µM, the GI50 [33] was 10.1 µM and the TGI [33] was 57.1 µM. The GI50 [34] was 2.54 µM, the TGI [34] was 25.1 µM and the GI50 [35] was 7.06 µM. The TGI [35] was 69.3 µM, the GI50 [36] was 5.19 µM and the TGI [36] was 41.6 µM. It also gave a GI50 [37] of 1.44 µM, a TGI [37] of 5.34 µM and a GI50 [38] of 5.52 µM. It also gave a TGI [38] greater than 100 µM, a GI50 [39] of 4.65 µM and a TGI [39] greater than 100 µM. The GI50 [40] was 3.93 µM, the TGI [40] was 28 µM and the GI50 [41] was 5.42 µM. The TGI [41] was 23.1 µM, the GI50 [42] was 8.74 µM and the TGI [42] was 61.1 µM. For the same compound, the GI50 [43] was 11.4 µM, the TGI [43] was 25.8 µM and the GI50 [44] was 3.51 µM. The TGI [44] was 20.8 µM, the GI50 [45] was 4.18 µM and the TGI [45] was greater than 100 µM. It also gave a GI50 [46] of 11.5 µM, a TGI [46] greater than 100 µM and a GI50 [47] of 1.61 µM. It also gave a TGI [47] of 8.35 µM, a GI50 [48] of 4.47 µM and a TGI [48] of 33.1 µM. It also gave a GI50 [49] of 6.31 µM, a TGI [49] of 97.7 µM and a GI50 [50] of 7.12 µM. It also gave a TGI [50] of 37.4 µM, a GI50 [51] of 3.97 µM and a TGI [51] of 52.3 µM. For the same compound, the GI50 [52] was 3.55 µM, the TGI [52] was greater than 100 µM and the GI50 [53] was 19.7 µM. It also gave a TGI [53] of 88.7 µM, a GI50 [54] of 3.92 µM and a TGI [54] of 17.7 µM. For the same compound, the GI50 [55] was 1.92 µM and the TGI [55] was 14.3 µM.
